Measurements published in ChEMBL document CHEMBL3994622, “Design and synthesis of new RAF kinase-inhibiting antiproliferative quinoline derivatives. Part 2: Diarylurea derivatives” (Eur J Med Chem, 2017).

Assays:
CCRF-CEM = experiment: Growth inhibition of human CCRF-CEM cells incubated for 48 hrs by sulforhodamine B assay; type: functional
PC-3 = experiment: Growth inhibition of human PC3 cells incubated for 48 hrs by sulforhodamine B assay; type: functional; details: PC-3, 48 h
CAKI-1 = experiment: Growth inhibition of human Caki1 cells incubated for 48 hrs by sulforhodamine B assay; type: functional; details: CAKI-1, 48 h
EKVX = experiment: Growth inhibition of human EKVX cells incubated for 48 hrs by sulforhodamine B assay; type: functional
SF-268 = experiment: Growth inhibition of human SF268 cells incubated for 48 hrs by sulforhodamine B assay; type: functional; details: SF-268, 48 h
K562 = experiment: Growth inhibition of human K562 cells incubated for 48 hrs by sulforhodamine B assay; type: functional; details: K562, 48 h
KM12 = experiment: Growth inhibition of human KM12 cells incubated for 48 hrs by sulforhodamine B assay; type: functional; details: KM12, 48 h
OVCAR-3 = experiment: Growth inhibition of human OVCAR3 cells incubated for 48 hrs by sulforhodamine B assay; type: functional; details: OVCAR-3, 48 h
Malme-3M = experiment: Growth inhibition of human MALME-3M cells incubated for 48 hrs by sulforhodamine B assay; type: functional
SN12C = experiment: Growth inhibition of human SN12C cells incubated for 48 hrs by sulforhodamine B assay; type: functional
M14 = experiment: Growth inhibition of human M14 cells incubated for 48 hrs by sulforhodamine B assay; type: functional; details: M14, 48 h
SNB-19 = experiment: Growth inhibition of human SNB19 cells incubated for 48 hrs by sulforhodamine B assay; type: functional; details: SNB-19, 48 h
MCF7 = experiment: Growth inhibition of human MCF7 cells incubated for 48 hrs by sulforhodamine B assay; type: functional; details: MCF7, 48 h
HL-60(TB) = experiment: Growth inhibition of human HL-60(TB) cells incubated for 48 hrs by sulforhodamine B assay; type: functional; details: HL-60, 48 h
U-251 = experiment: Growth inhibition of human U251 cells incubated for 48 hrs by sulforhodamine B assay; type: functional; details: U-251, 48 h
RXF 393 = experiment: Growth inhibition of human RXF393 cells incubated for 48 hrs by sulforhodamine B assay; type: functional; details: RXF 393, 48 h
MDA-MB-435 = experiment: Growth inhibition of human MDA-MB-435 cells incubated for 48 hrs by sulforhodamine B assay; type: functional; details: MDA-MB-435, 48 h
BT-549 = experiment: Growth inhibition of human BT549 cells incubated for 48 hrs by sulforhodamine B assay; type: functional; details: BT-549, 48 h
A549 = experiment: Growth inhibition of human A549/ATCC cells incubated for 48 hrs by sulforhodamine B assay; type: functional; details: A549, 48 h
IGROV-1 = experiment: Growth inhibition of human IGROV1 cells incubated for 48 hrs by sulforhodamine B assay; type: functional; details: IGROV-1, 48 h
[1] = target: RAF proto-oncogene serine/threonine-protein kinase (Homo sapiens, UniProt P04049); experiment: Inhibition of human c-RAF at 10 uM using MEK1 as substrate in presence of [33P]ATP by Hotspot assay relative to control
HT-29 = experiment: Growth inhibition of human HT-29 cells incubated for 48 hrs by sulforhodamine B assay; type: functional; details: HT-29, 48 h
SK-OV-3 = experiment: Growth inhibition of human SKOV3 cells incubated for 48 hrs by sulforhodamine B assay; type: functional; details: SK-OV-3, 48 h
SNB-75 = experiment: Growth inhibition of human SNB75 cells incubated for 48 hrs by sulforhodamine B assay; type: functional; details: SNB-75, 48 h
786-0 = experiment: Growth inhibition of human 786-0 cells incubated for 48 hrs by sulforhodamine B assay; type: functional; details: 786-0, 48 h
HCT-15 = experiment: Growth inhibition of human HCT15 cells incubated for 48 hrs by sulforhodamine B assay; type: functional; details: HCT-15, 48 h
SW-620 = experiment: Growth inhibition of human SW620 cells incubated for 48 hrs by sulforhodamine B assay; type: functional; details: SW-620, 48 h
SF-539 = experiment: Growth inhibition of human SF539 cells incubated for 48 hrs by sulforhodamine B assay; type: functional; details: SF-539, 48 h
LOX IMVI = experiment: Growth inhibition of human LOXIMVI cells incubated for 48 hrs by sulforhodamine B assay; type: functional
SK-MEL-5 = experiment: Growth inhibition of human SK-MEL-5 cells incubated for 48 hrs by sulforhodamine B assay; type: functional; details: SK-MEL-5, 48 h
NCI-H460 = experiment: Growth inhibition of human NCI-H460 cells incubated for 48 hrs by sulforhodamine B assay; type: functional; details: NCI-H460, 48 h
RPMI-8226 = experiment: Growth inhibition of human RPMI8226 cells incubated for 48 hrs by sulforhodamine B assay; type: functional; details: RPMI-8226, 48 h
[2] = read-out: LC50 (the source's name)

RAF proto-oncogene serine/threonine-protein kinase, sequence (P04049 whole entry): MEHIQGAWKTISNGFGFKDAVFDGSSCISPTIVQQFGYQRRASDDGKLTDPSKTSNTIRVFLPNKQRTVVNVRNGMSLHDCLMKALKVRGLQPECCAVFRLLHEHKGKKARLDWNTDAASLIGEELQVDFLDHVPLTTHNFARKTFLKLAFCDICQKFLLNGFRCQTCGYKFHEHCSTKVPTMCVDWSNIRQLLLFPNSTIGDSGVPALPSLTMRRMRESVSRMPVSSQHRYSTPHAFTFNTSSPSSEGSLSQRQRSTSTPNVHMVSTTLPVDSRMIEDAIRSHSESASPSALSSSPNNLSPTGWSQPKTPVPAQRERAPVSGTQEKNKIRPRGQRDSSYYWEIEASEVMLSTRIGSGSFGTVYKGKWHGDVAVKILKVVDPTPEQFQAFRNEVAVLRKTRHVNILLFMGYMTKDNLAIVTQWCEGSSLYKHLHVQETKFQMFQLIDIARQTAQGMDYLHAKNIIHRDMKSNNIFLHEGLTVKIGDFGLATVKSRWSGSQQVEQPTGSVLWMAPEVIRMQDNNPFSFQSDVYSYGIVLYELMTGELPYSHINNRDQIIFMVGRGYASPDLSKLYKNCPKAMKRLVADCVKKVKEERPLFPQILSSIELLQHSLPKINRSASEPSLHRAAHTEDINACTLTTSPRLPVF

Work on `COc1cc2cc(Oc3ccc(NC(=O)Nc4ccc(Cl)c(C(F)(F)F)c4)cc3)c(C)nc2cc1OC` yielded a GI50 (CCRF-CEM) of 1.01 µM, a TGI (CCRF-CEM) of 3.09 µM and a CC50 (CCRF-CEM; [2]) of over 32.5 µM. The GI50 (PC-3) was 0.781 µM, the TGI (PC-3) was 2.96 µM and the CC50 (PC-3; [2]) was over 32.5 µM. The GI50 (CAKI-1) was 0.782 µM, the TGI (CAKI-1) was 2.54 µM and the CC50 (CAKI-1; [2]) was 25.2 µM. For the same molecule, the GI50 (EKVX) was 1.01 µM, the LC50 (concentration killing 50% of cells) (EKVX) was 17.6 µM and the TGI (EKVX) was 3.75 µM. The GI50 (SF-268) was 1.55 µM, the LC50 (50% lethal concentration) (SF-268) was 22.6 µM and the TGI (SF-268) was 6.34 µM. The GI50 (K562) was 1.11 µM, the LC50 (concentration killing 50% of cells) (K562) was 23.6 µM and the TGI (K562) was 4.81 µM. It also gave a GI50 (KM12) of 1.07 µM, a TGI (KM12) of 3.85 µM and a CC50 (KM12; [2]) of 13.8 µM. It also gave a GI50 (OVCAR-3) of 1.16 µM, a TGI (OVCAR-3) of 4.45 µM and a CC50 (OVCAR-3; [2]) of 14 µM. For the same molecule, the GI50 (Malme-3M) was 1.33 µM, the TGI (Malme-3M) was 5.71 µM and the CC50 (Malme-3M; [2]) was over 32.5 µM. It also gave a GI50 (SN12C) of 1.31 µM, a TGI (SN12C) of 6.12 µM and a CC50 (SN12C; [2]) of 26.8 µM. For the same molecule, the GI50 (M14) was 1.25 µM, the TGI (M14) was 5.25 µM and the CC50 (M14; [2]) was 19.2 µM. It also gave a GI50 (SNB-19) of 1.41 µM, a TGI (SNB-19) of 5.31 µM and a CC50 (SNB-19; [2]) of 15 µM. It also gave a GI50 (MCF7) of 1.08 µM, a TGI (MCF7) of 3.88 µM and a CC50 (MCF7; [2]) of 15 µM. For the same molecule, the GI50 (HL-60(TB)) was 1.13 µM, the TGI (HL-60(TB)) was 3.12 µM and the CC50 (HL-60(TB); [2]) was over 32.5 µM. For the same molecule, the GI50 (U-251) was 1.03 µM, the TGI (U-251) was 3.78 µM and the CC50 (U-251; [2]) was 12.6 µM. For the same molecule, the GI50 (RXF 393) was 1.33 µM, the TGI (RXF 393) was 4.21 µM and the CC50 (RXF 393; [2]) was 15 µM. It also gave a GI50 (MDA-MB-435) of 1.03 µM, a TGI (MDA-MB-435) of 4.71 µM and a CC50 (MDA-MB-435; [2]) of over 32.5 µM. It also gave a GI50 (BT-549) of 0.981 µM, a TGI (BT-549) of 4.59 µM and a CC50 (BT-549; [2]) of 20.5 µM. It also gave a GI50 (A549) of 1 µM, a TGI (A549) of 4.16 µM and a CC50 (A549; [2]) of 15.1 µM. For the same molecule, the GI50 (IGROV-1) was 2.34 µM, the TGI (IGROV-1) was 9.83 µM and the CC50 (IGROV-1; [2]) was over 32.5 µM. For the same molecule, the inhibition [1] was 99.7%, the GI50 (HT-29) was 1.2 µM and the TGI (HT-29) was 3.98 µM. For the same molecule, the CC50 (HT-29; [2]) was 14.2 µM, the GI50 (SK-OV-3) was 1.35 µM and the TGI (SK-OV-3) was 5.79 µM. The CC50 (SK-OV-3; [2]) was 31.5 µM, the GI50 (SNB-75) was 1.03 µM and the TGI (SNB-75) was 4.9 µM. It also gave a CC50 (SNB-75; [2]) of over 32.5 µM, a GI50 (786-0) of 1.17 µM and a TGI (786-0) of 4.97 µM. It also gave a CC50 (786-0; [2]) of 18.8 µM, a GI50 (HCT-15) of 1.15 µM and an LC50 (lethal concentration, 50% net cell kill) (HCT-15) of 16.9 µM. For the same molecule, the TGI (HCT-15) was 4.86 µM, the GI50 (SW-620) was 1.25 µM and the LC50 (SW-620) was 14 µM. For the same molecule, the TGI (SW-620) was 4.57 µM, the GI50 (SF-539) was 1.96 µM and the TGI (SF-539) was 8.39 µM. It also gave a CC50 (SF-539; [2]) of over 32.5 µM, a GI50 (LOX IMVI) of 1.22 µM and a TGI (LOX IMVI) of 4.16 µM. The CC50 (LOX IMVI; [2]) was 11.6 µM, the GI50 (SK-MEL-5) was 0.793 µM and the TGI (SK-MEL-5) was 2.17 µM. It also gave a CC50 (SK-MEL-5; [2]) of 8.01 µM, a GI50 (NCI-H460) of 1.07 µM and a TGI (NCI-H460) of 3.57 µM. It also gave a CC50 (NCI-H460; [2]) of 21.1 µM, a GI50 (RPMI-8226) of 0.636 to 0.64 µM and an LC50 (lethal concentration, 50% cell kill) (RPMI-8226) of over 32.5 µM. It also gave a TGI (RPMI-8226) of 1.65 µM.
